# In patent US6900194B1, “Use of substituted 4-biarylbutyric and 5-biarylpentanoic acid derivatives as matrix metalloprotease inhibitors for the treatment of respiratory diseases” (Bayer Aktiengesellschaft, priority 1998, dated 2005):
# What was measured:
# Assay type in all cases: biochemical
# MMP-3 (Stromelysin) = molecular target: T1, MMP-3 (Stromelysin) (Homo sapiens, UniProt P08254); assay: P218 quenched fluorescence assay, MMP-3
# T1 construct: Truncated Pro-stromelysin-257 is expressed in a soluble form in E. coli as described by Marcy et al; made in house; host or cells: E. coli
# Text: (§1) P218 Quenched Fluorescence Assay for MMP Inhibition:
# (§2) This assay is adapted from the one described by Knight et al., FEBS Letters, 296, 263-266 (1992) for MMP-3 and a related substrate. The rate of hydrolysis of the synthetic substrate H-MCA-Pro-Lys-Pro-Leu-Ala-Leu-DPA-Ala-Arg-NH2 (P218) by the respective MMPs is monitored fluorometrically, using an excitation wavelength of 340 nm and an emission wavelength of 395 nm, in the presence or absence of the test compounds. The substrate is made up initially in 100% DMSO to a concentration of 1×10^−2 M, then diluted in assay buffer to a final concentration of 20 μM. […] The total assay volume in a 96 well microtitre plate is 150 μl, Cleavage of the substrate between the Leu-Ala residues allows the fluorescence of the MCA group to be detected on a fluorometer (Cytofluor II) following excitation at 340 nm and emission at 395 nm. Change in fluorescence is continually monitored for a 40 min period.
# (§3) The Ki's are calculated using the method described by Williams and Morrison, Methods in Enzymology, 63, 437-467 (1979) to measure Ki apparent for tight binding inhibitors, and is summarised as follows: [I]0/(1−vi/v0)=Ki apparent ×vi/v0+[E]0 [I]0 and [E]0 are inhibitor and enzyme concentrations, and vi/v0 are reaction velocities with/without inhibitor. […]
# (§4) IC50's are determined at each enzyme concentration using Xlfit software. […]
# [1] = molecular target: MMP-13 (Human Collagenase 3) (Homo sapiens, UniProt P45452); assay: P218 quenched fluorescence assay, MMP-13 (human)
# Text: as §1, §2, §3, §4
# [2] = molecular target: T2, MMP-1 (Human Gingival Fibroblast Interstitial Collagenase) (Homo sapiens, UniProt P03956); assay: P218 quenched fluorescence assay, MMP-1; settings: read-out: Potency Ki vs. MMP-1
# T2 construct: Jack Windsor (supplied, not bought)
# T2 sequence (P03956 100-469): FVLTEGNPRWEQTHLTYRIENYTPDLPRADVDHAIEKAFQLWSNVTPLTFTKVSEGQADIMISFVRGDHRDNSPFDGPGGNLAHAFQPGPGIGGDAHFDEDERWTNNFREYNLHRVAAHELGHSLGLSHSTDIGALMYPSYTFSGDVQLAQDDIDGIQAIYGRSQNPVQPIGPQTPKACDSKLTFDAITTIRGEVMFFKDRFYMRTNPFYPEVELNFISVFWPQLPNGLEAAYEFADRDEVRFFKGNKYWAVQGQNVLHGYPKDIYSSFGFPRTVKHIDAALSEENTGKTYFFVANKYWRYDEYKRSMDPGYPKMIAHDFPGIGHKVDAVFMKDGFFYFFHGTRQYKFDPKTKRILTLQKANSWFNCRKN
# Text: as §1, §2, §3, §4
# [3] = molecular target: T3, MMP-8 (Neutrophil Collagenase) (Homo sapiens, UniProt P22894); assay: P218 quenched fluorescence assay, MMP-8
# T3 construct: Active recombinant truncated form (met^80-gly^242) was obtained according to the protocol of Knauper; made in house
# Text: as §1, §2, §3, §4
# T3 sequence (P22894 100-262): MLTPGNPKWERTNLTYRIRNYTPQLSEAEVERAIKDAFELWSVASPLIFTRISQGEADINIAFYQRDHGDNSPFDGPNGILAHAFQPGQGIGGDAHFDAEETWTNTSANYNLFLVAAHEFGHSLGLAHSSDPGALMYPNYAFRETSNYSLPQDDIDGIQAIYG
# T1 sequence (P08254 100-274): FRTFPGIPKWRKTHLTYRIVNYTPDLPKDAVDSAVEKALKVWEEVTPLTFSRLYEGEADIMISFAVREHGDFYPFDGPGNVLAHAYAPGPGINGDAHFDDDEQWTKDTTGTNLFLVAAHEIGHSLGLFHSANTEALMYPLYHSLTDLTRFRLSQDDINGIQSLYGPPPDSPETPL
Compound,IC50 (MMP-3 (Stromelysin); read-out: IC50 vs. MMP-3 (value marked *)) [nM],IC50 ([1]; read-out: IC50 vs. MMP-13 (value marked *)) [nM],Ki [2] [nM],IC50 ([3]; read-out: IC50 vs. MMP-8 (value marked *)) [nM],Ki (MMP-3 (Stromelysin); read-out: Potency Ki vs. MMP-3) [nM],Ki ([1]; read-out: Potency Ki vs. MMP-13) [nM],Ki ([3]; read-out: Potency Ki vs. MMP-8) [nM]
"CCOc1ccc(-c2ccc(C(=O)CC(CCN3C(=O)c4ccccc4C3=O)C(=O)O)cc2)cc1 (single isomer, unassigned; (+)) [Example 2, (+)-2-[2-(1,3-Dioxo-1,3-dihydro-2H-isoindol-2-yl)ethyl]-4-(4′-ethoxy[1,1′-biphenyl]-4-yl)-4-oxobutanoic acid]",60,70,> 3000,21.6,,,
"O=C(CC(CCN1C(=O)c2ccccc2C1=O)C(=O)O)c1ccc(-c2ccc(Cl)cc2)cc1 (single isomer, unassigned; (+)) [Example 4, (+)-4-(4′-Chloro[1,1′-biphenyl]4-yl)-2-[2-(1,3-dioxo-1,3-dihydro-2H-isoindol-2-yl)ethyl]-4-oxobutanoic acid]",,,639,,3.7,5.6,7.5
